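The concentration for 50% growth inhibition is given as GI50. The concentration for full growth arrest is given as TGI.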
Tests used:
Experiment in all cases: DTP human tumour cell line panel, 384-well format
786-0 renal = system: 786-0 renal
A498 renal = system: A498 renal
A549 NSCLC = system: A549 NSCLC
ACHN renal = system: ACHN renal
CAKI-1 renal = system: CAKI-1 renal
CCRF-CEM leukemia = system: CCRF-CEM leukemia
COLO 205 colon = system: COLO 205 colon
HCT-116 colon = system: HCT-116 colon
HL-60(TB) leukemia = system: HL-60(TB) leukemia
HOP-62 NSCLC = system: HOP-62 NSCLC
HT29 colon = system: HT29 colon
IGROV1 ovarian = system: IGROV1 ovarian
K-562 leukemia = system: K-562 leukemia
MALME-3M melanoma = system: MALME-3M melanoma
MCF7 breast = system: MCF7 breast
MDA-MB-231 breast = system: MDA-MB-231 breast
MDA-MB-435 melanoma = system: MDA-MB-435 melanoma
MDA-MB-468 breast = system: MDA-MB-468 breast
MOLT-4 leukemia = system: MOLT-4 leukemia
NCI-H226 lung = system: NCI-H226 lung
NCI-H23 lung = system: NCI-H23 lung
NCI-H322M lung = system: NCI-H322M lung
NCI-H460 NSCLC = system: NCI-H460 NSCLC
NCI/ADR-RES ovarian = system: NCI/ADR-RES ovarian
OVCAR-3 ovarian = system: OVCAR-3 ovarian
OVCAR-4 ovarian = system: OVCAR-4 ovarian
OVCAR-5 ovarian = system: OVCAR-5 ovarian
OVCAR-8 ovarian = system: OVCAR-8 ovarian
PC-3 prostate = system: PC-3 prostate
RPMI-8226 leukemia = system: RPMI-8226 leukemia
RXF 393 renal = system: RXF 393 renal
SF-268 CNS = system: SF-268 CNS
SF-295 CNS = system: SF-295 CNS
SK-MEL-2 melanoma = system: SK-MEL-2 melanoma
SK-MEL-28 melanoma = system: SK-MEL-28 melanoma
SK-MEL-5 melanoma = system: SK-MEL-5 melanoma
SK-OV-3 ovarian = system: SK-OV-3 ovarian
SN12C renal = system: SN12C renal
SNB-19 CNS = system: SNB-19 CNS
SNB-75 CNS = system: SNB-75 CNS
SR leukemia = system: SR leukemia
SW-620 colon = system: SW-620 colon
T-47D breast = system: T-47D breast
TK-10 renal = system: TK-10 renal
U251 glioblastoma = system: U251 glioblastoma
UACC-62 melanoma = system: UACC-62 melanoma
UO-31 renal = system: UO-31 renal

C=CCN(/C=C1\C(=O)O[C@H](COC)[C@@]2(C)C1=C(O)C(=O)C1=C2[C@H](OC(C)=O)C[C@]2(C)C(=O)CC[C@@H]12)CC=C
GI50 ([…]-0 renal): 4.45 µM | TGI (786-0 renal): 28.5 µM | GI50 (A498 renal): 0.39 µM | TGI (A498 renal): 5.3 µM | GI50 (A549 NSCLC): 1.11 µM | TGI (A549 NSCLC): 27.6 µM | GI50 (ACHN renal): 4.71 µM | TGI (ACHN renal): > 100 µM | GI50 (CAKI-1 renal): 2.75 µM | TGI (CAKI-1 renal): > 100 µM | GI50 (CCRF-CEM leukemia): 0.723 µM | TGI (CCRF-CEM leukemia): 4.53 µM | GI50 (COLO 205 colon): 0.793 µM | TGI (COLO 205 colon): 4.64 µM | GI50 (HCT-116 colon): 4.61 µM | TGI (HCT-116 colon): 31.4 µM | GI50 (HL-60(TB) leukemia): 0.156 µM | TGI (HL-60(TB) leukemia): 0.983 µM | GI50 (HOP-62 NSCLC): 10.3 µM | TGI (HOP-62 NSCLC): > 100 µM | GI50 (HT29 colon): 1.08 µM | TGI (HT29 colon): 21.7 µM | GI50 (IGROV1 ovarian): 0.406 µM | TGI (IGROV1 ovarian): 5.26 µM | GI50 (K-562 leukemia): 17.6 µM | TGI (K-562 leukemia): > 100 µM | GI50 (MALME-3M melanoma): 0.677 µM | TGI (MALME-3M melanoma): 12.2 µM | GI50 (MCF7 breast): 0.441 µM | TGI (MCF7 breast): 19.4 µM | GI50 (MDA-MB-231 breast): 3.68 µM | TGI (MDA-MB-231 breast): > 100 µM | GI50 (MDA-MB-435 melanoma): 8.15 µM | TGI (MDA-MB-435 melanoma): 38.1 µM | GI50 (MDA-MB-468 breast): 0.0764 µM | TGI (MDA-MB-468 breast): 2.09 µM | GI50 (MOLT-4 leukemia): 0.333 µM | TGI (MOLT-4 leukemia): 2.02 µM | GI50 (NCI-H226 lung): 2.76 µM | TGI (NCI-H226 lung): 56.7 µM | GI50 (NCI-H23 lung): 4.35 µM | TGI (NCI-H23 lung): 33.8 µM | GI50 (NCI-H322M lung): 1.21 µM | TGI (NCI-H322M lung): 23.3 µM | GI50 (NCI-H460 NSCLC): 0.668 µM | TGI (NCI-H460 NSCLC): 90.1 µM | GI50 (NCI/ADR-RES ovarian): 8.83 µM | TGI (NCI/ADR-RES ovarian): > 100 µM | GI50 (OVCAR-3 ovarian): 1.16 µM | TGI (OVCAR-3 ovarian): 12.2 µM | GI50 (OVCAR-4 ovarian): 0.787 µM | TGI (OVCAR-4 ovarian): 33.5 µM | GI50 (OVCAR-5 ovarian): 3.62 µM | TGI (OVCAR-5 ovarian): 42.9 µM | GI50 (OVCAR-8 ovarian): 3.85 µM | TGI (OVCAR-8 ovarian): > 100 µM | GI50 (PC-3 prostate): 0.648 µM | TGI (PC-3 prostate): 18 µM | GI50 (RPMI-8226 leukemia): 0.657 µM | TGI (RPMI-8226 leukemia): 3.16 µM | GI50 (RXF 393 renal): 0.0828 µM | TGI (RXF 393 renal): 0.65 µM | GI50 (SF-268 CNS): 1.82 µM | TGI (SF-268 CNS): 19.9 µM | GI50 (SF-295 CNS): 2.12 µM | TGI (SF-295 CNS): 18.7 µM | GI50 (SK-MEL-2 melanoma): 2.36 µM | TGI (SK-MEL-2 melanoma): 12.3 µM | GI50 (SK-MEL-28 melanoma): 1.59 µM | TGI (SK-MEL-28 melanoma): 19.7 µM | GI50 (SK-MEL-5 melanoma): 2.96 µM | TGI (SK-MEL-5 melanoma): 14.7 µM | GI50 (SK-OV-3 ovarian): 0.68 µM | TGI (SK-OV-3 ovarian): 15.3 µM | GI50 (SN12C renal): 2.08 µM | TGI (SN12C renal): > 100 µM | GI50 (SNB-19 CNS): 13.7 µM | TGI (SNB-19 CNS): > 100 µM | GI50 (SNB-75 CNS): 1.57 µM | TGI (SNB-75 CNS): 10.1 µM | GI50 (SR leukemia): 1.22 µM | TGI (SR leukemia): 2.51 µM | GI50 (SW-620 colon): 7.45 µM | TGI (SW-620 colon): > 100 µM | GI50 (T-47D breast): 0.724 µM | TGI (T-47D breast): 10.2 µM | GI50 (TK-10 renal): 1.19 µM | TGI (TK-10 renal): 15.2 µM | GI50 (U251 glioblastoma): 13 µM | TGI (U251 glioblastoma): 82.7 µM | GI50 (UACC-62 melanoma): 0.89 µM | TGI (UACC-62 melanoma): 8.77 µM | GI50 (UO-31 renal): 2.81 µM | TGI (UO-31 renal): > 100 µM

— PubChem BioAssay (NCI)
